{
  "source": "patent US8119657B2",
  "about": "“Enantiomeric compositions of 2-amino-1-(2-isopropylpyrazolo[1,5-α]pyridin-3-yl)propan-1-one and related methods” (MediciNova, Inc., priority 2009, dated 2012)",
  "key": {"[1]": {"experiment": "Chiral and chemical stability in solution and on storage", "format": "physicochemical", "description": "Without ascribing to any particular theory, the present inventors believe that the facile separation of enantiomers using the N-protected racemate of AV1013 is probably due to the greater stability of the racemate as well as the separate enantiomers in protected form. […] Unstability also stems from the ability of the free base to self condense. Because self-condensation is promoted in concentrated solutions, it is desirable to avoid highly concentrated solutions of the free base form of optically active AV1013. Likewise, the free base form of racemic AV1013 or its hydrochloride salt are also unstable, precluding their use as precursors to obtaining (S)-AV1013 as a free base or its hydrochloride salt in high yield and/or high purity.\nThus, it is often desirable to re-purify the de-protected product using purification techniques known in the art. For example, any one or more of the methods described above for separating chiral molecules, such as, chromatography (e.g., HPLC, GC, and SFC), crystallization, fractional crystallization, and the like may be used for re-purification. An exemplary method is recrystallization. Purification by recrystallization allows separation of the desired (S)-enantiomer in high purity, such that the overall reaction sequence including isolation of the desired (S)-enantiomer requires only a single chromatographic step (i.e., the chiral separation). Recrystallization can be carried out in any of a number of single or mixed solvent systems including alcohols, ethers, esters, nitriles, halogenated hydrocarbons, amides and aqueous mixtures thereof. Suitable solvents include methanol, ethanol, propanol, iso-propanol, acetone, tetrahyrofuran, methyl ethyl ketone, methyl isobutyl ketone, ethyl acetate, amyl acetate, acetonitrile, diethyl ether, methyl tert-butyl ether, dichloromethane, dichloroethane, chloroform, dimethylformamide, and combinations thereof. Illustrative mixed solvent systems used to recrystallize (S)-AV1013 are iso-propanol/methyl tert-butyl ether and ethanol/methyl tert-butyl ether.\nThe five-step route provided a 15% overall yield of (S)-AV1013.HCl. The chiral separation, by SFC chromatography, is the only chromatographic step required. Hydrolysis of the N-protected (S)-AV1013, followed by recrystallization from iso-propanol/methyl tert-butyl ether provided (S)-AV1013.HCl in greater than 99% chemical purity and greater than 97% S-enantiomer (greater than 94% enantiomeric excess (ee)) by chiral HPLC, as determined from the equation ee=[|R−S^51÷(R+S)]×100 ee=[|R−S|÷(R+S)]×100. […] Even under optimal storage and handling conditions to minimize exposure to moisture, a small degree of racemization (i.e., approximately 2%) was observed. Recrystallization was effective to improve enantiomeric purity to arrive at a product having an illustrative chiral purity as described above. […] The recrystallized (S)-AV 1013.HCl contained approximately 25 mole percent alcohol (less than about 10% by weight) even when dried at 50° C. Thus, it appears that the resultant product is formed as a solvate under the recrystallization and drying conditions employed."}, "[2]": {"test_system": "rat chronic constriction injury model of neuropathic pain", "experiment": "Rat chronic constriction injury model of neuropathic pain (von Frey mechanical allodynia)", "format": "in vivo", "details": "for in vivo activity in a rat model of neuropathic pain: dose not stated", "description": "The (S)- and the (R)-enantiomer of AV1013 were each evaluated in a rat chronic constriction injury model of neuropathic pain (see, Ledeboer et. al., Neuron Glia Biology, (2006), p 279-291), to determine whether differences in their activity could be observed.\nTo induce allodynia, male Sprague-Dawley rats underwent chronic constriction injury (CCI) to the sciatic nerve as described by Bennett and Xie, Pain 1988; 33(1):87-107. The plantar surface of the hind paws was stimulated with von Frey filaments (Stoelting) to induce a withdrawal response by blinded personnel. The bending force of fiber required to induce a 50% withdrawal response was calculated following CCI surgery (pre-dosing baseline).\nAllodynic rats (N=5-6), received an oral administration of (S)-AV1013 (25 mg/kg), AV1013-R (100 mg/kg) or vehicle. Two hours post-dosing, 50% paw withdrawal threshold was determined by blinded testers using von Frey filaments. The 50% withdrawal threshold prior to CCI surgery, pre-dosing (10 days post-surgery), and 2 hours post-dosing are plotted in FIG. 3."}, "Rolipram binding site": {"test_system": "Rolipram binding site", "experiment": "Inhibition of binding at the Rolipram binding site", "details": "10 uM"}, "[3]": {"experiment": "Rat pharmacokinetics of the enantiomers after oral dosing of racemic AV1013", "format": "in vivo", "procedure": "Three male Sprague-Dawley rats were dosed orally via gavage with 25 mg/kg racemic AV1013 dissolved in water. Serial blood samples were collected from the tail vein at 5, 15, and 30 min, 1, 3, and 6 hours post dosing. Samples were processed for plasma via centrifugation and plasma samples were stored frozen prior to analysis.\n(§1) A sensitive and specific chiral HPLC/MS/MS bioanalytical method for the detection of (S)-AV1013 and (R)-AV1013 enantiomers in rat and dog plasma was utilized. AV1013 enantiomers and the internal standard (AV1040, an analog of AV1013) were isolated from plasma by protein precipitation induced by acetonitrile. After centrifugation to sediment the proteins, the supernatant fractions were analyzed by high performance liquid chromatography (LC) in conjunction with a triple quadrupole mass spectrometer that used electrospray ionization in tandem with positive ionization (MS/MS) according to the conditions below. The LLOQ (lower level of quantitation) was typically <3 ng/mL.\n(§2) Analysis of pharmacokinetic parameters was performed for each enantiomer via LC/MS bioanalytics and WinNonlin™ analysis (version 4.0.1; Pharsight Corp., Mountain View, Calif.), commercial software designed for the analysis of PK data. The PK modeling was based on a non-compartmental model with gradual input into the central compartment. Computation of the area under the curve (AUC) was based on the sum of trapezoidal areas for the plotted plasma concentration-time data. AUC and associated parameters were estimated by log-linear regression analysis of the terminal phase."}, "[4]": {"experiment": "Dog pharmacokinetics of the enantiomers after oral dosing of racemic AV1013", "format": "in vivo", "procedure": "Three male beagle dogs were dosed orally with 10 mg/kg racemic AV1013 via gavage. AV1013 was dissolved in water at 5 mg/ml and dosed via gavage at a volume of 2 ml/kg. Blood samples were collected via the jugular vein at 5, 15 and 30 minutes, 1, 2, 4, 6, 8, and 24 hours post dosing.\nas §1, §2"}, "[5]": {"target": "T1, rhMIF (recombinant human Macrophage migration Inhibitory Factor) (Homo sapiens, UniProt P14174)", "T1 sequence (P14174 2-115 limits assumed)": "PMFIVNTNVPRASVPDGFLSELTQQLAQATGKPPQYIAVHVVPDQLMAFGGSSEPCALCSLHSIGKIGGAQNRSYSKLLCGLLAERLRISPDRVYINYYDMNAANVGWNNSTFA", "experiment": "MIF-induced migration of human peripheral blood monocytes (PBMCs)", "format": "cell-based", "details": "rhMIF 90 nM, dilution series of inhibitor", "procedure": "The chemo attractant activities of rhMIF (recombinant human Macrophage migration Inhibitory Factor) and the effect of inhibitors were measured using human peripheral blood monocytes (PBMCs) isolated from whole blood by centrifugation on Histopaque-1077 (Sigma). The cells were washed in RPMI-1640, diluted to 1×10^6 cells/ml and analyzed immediately. These assays were carried out in 24 well tissue culture plates utilizing 8.0 μm cell culture inserts (Falcon). Recombinant hMIF (90 nM), diluted in RPMI was placed in the cells of a 24 well plate with or without inhibitor (10-fold molar excess or dilution series) and allowed to incubate for 30 min at 37° C., 5% CO2. Washed human monocytes were added to the upper chamber of 8.0 μm cell culture inserts and allowed to incubate for 3 hrs at 37° C., 5% CO2. Cells that migrate through the membrane were fixed in methanol and stained with Geimsa, prior to cell counting using light microscopy.\nResults are expressed as the mean number of cells counted per high power field for each of two replicates to obtain statistically significant data. (Legend: −Star=no human MIF, Skull=no human MIF+10 uM (S)-AV1013. See FIGS. 5A and 5B."}, "formalin paw model": {"test_system": "formalin paw model", "experiment": "Inflammatory pain model (formalin paw model) in mice", "format": "in vivo", "details": "mice, 300 mg/kg p.o. 60 min before the test", "procedure": "The model employed is described in detail by Wheeler-Aceto et al (Psychopharmacology, 104, p 35-44, (1991)). Briefly, mice were given an intraplantar injection of 5% formalin (25 μl) into the posterior left paw. […] Mice were briefly observed at 1 minute intervals between 15 and 50 minutes after the injection of formalin and the number of times mice were observed licking the injected paw was recorded. 10 mice were studied in each group. The test was performed blind.\nAV1013-S was evaluated at 3 doses (10, 25 and 50 mg/kg), administered p.o. 60 minutes before the test (i.e. 45 minutes before formalin), and compared with a vehicle control group. Gabapentin (300 mg/kg p.o.), administered under the same experimental conditions, was used as reference substance. The experiment therefore included 5 groups.\nData were analyzed by comparing treated groups with vehicle control using unpaired Mann-Whitney U tests."}, "[6]": {"details": "oral 25 mg/kg racemic AV1013, plasma"}, "[7]": {"details": "oral dosing of racemate, rounded values"}, "[8]": {"details": "beagle dog, oral 10 mg/kg racemic AV1013, plasma"}, "[9]": {"details": "dog, oral dosing of racemate, rounded values"}},
  "note": "Entries after “also recorded” stand apart in the source; their conditions may differ. Marks after values point to notes of the source that are not given here.",
  "data": [
    {"smiles": "CC(N)C(=O)c1c(C(C)C)nn2ccccc12", "note": "(racemic) [AV1013, 2-amino-1-(2-isopropylpyrazolo[1,5-a]pyridin-3-yl)propan-1-one]", "values": [
      {"measurement": "stability / racemization in solution", "setting": "[1]; free base (or hydrochloride salt where stated), in solution", "result": "unstable"},
      {"measurement": "in vivo activity in a rat model of neuropathic pain", "setting": "[2]", "result": "significant in vivo activity"},
      {"measurement": "inhibition of the Rolipram binding site", "setting": "Rolipram binding site", "result": 43, "unit": "%"}
    ]},
    {"smiles": "CC(C)c1nn2ccccc2c1C(=O)[C@@H](C)N", "note": "[(R)-AV1013]", "values": [
      {"measurement": "AUC last", "setting": "[3]; [6]", "result": 340, "unit": "ng·h/mL"},
      {"measurement": "Cmax", "setting": "[3]; [6]", "result": 190, "unit": "ng/mL"},
      {"measurement": "calculated area under the curves (AUC)", "setting": "[3]; [7]", "result": 300, "unit": "ng·h/mL"},
      {"measurement": "mean peak plasma levels (Cmax)", "setting": "[3]; [7]", "result": 200, "unit": "ng/mL"},
      {"measurement": "AUC last", "setting": "[4]; [8]", "result": 7640, "unit": "ng·h/mL"},
      {"measurement": "Cmax", "setting": "[4]; [8]", "result": 1140, "unit": "ng/mL"},
      {"measurement": "calculated area under the curves (AUC)", "setting": "[4]; [9]", "result": 7600, "unit": "ng·h/mL"},
      {"measurement": "mean peak plasma levels (Cmax)", "setting": "[4]; [9]", "result": 1100, "unit": "ng/mL"},
      {"measurement": "in vivo activity in a rat model of neuropathic pain", "setting": "[2]", "result": "little or no in vivo activity"},
      {"measurement": "attenuation of mechanical allodynia (50% paw withdrawal threshold)", "setting": "[2]; rat CCI, oral 100 mg/kg, 2 hours post-dosing", "result": "essentially no activity"},
      {"measurement": "antagonism of MIF-induced cell migration", "setting": "[5]", "result": "antagonize MIF-induced macrophage migration in a dose-dependent fashion; also recorded: antagonize MIF-induced mononuclear cell migration in a similar dose dependent fashion"}
    ]},
    {"smiles": "CC(C)c1nn2ccccc2c1C(=O)[C@H](C)N.Cl", "note": "[(S)-AV1013.HCl, (S)-2-Amino-1-(2-isopropylpyrazolo[1,5-a]pyridin-3-yl)propan-1-one hydrochloride]", "values": [
      {"measurement": "degree of racemization on storage", "setting": "[1]; hydrochloride salt, optimal storage and handling conditions to minimize exposure to moisture", "result": "approximately 2%"}
    ]},
    {"smiles": "NCC1(CC(=O)O)CCCCC1", "note": "[Gabapentin, reference compound]", "values": [
      {"measurement": "% Change from Control", "setting": "formalin paw model", "result": "−83", "unit": "%"},
      {"measurement": "Licking Score (Mean +/− SEM)", "setting": "formalin paw model; p < 0.01", "result": "2.6 +/− 0.8 *"}
    ]}
  ]
}
